“And” between values parts separate entries of the source, which are not always exact repeats. Equal entries are not always repeated. Where two headings read alike, the source gives them in different places. Where a SMILES comes first, the peptide text is derived from it. Where no end group is shown, it is not given here. The star is where a group is joined. Biotin = O=C1N[C@H]2[C@H](CS[C@H]2CCCCC(=O)*)N1
Assays:
[1] = tested on: mAb AVR1675; type: binding, mouse
[2] = tested on: AVR1675 mAb; type: binding, mouse
[3] = molecular target: AVR1675 (LFG2 3F3:3D10 IgG1 kappa) (mouse); test: ELISA
Chain of AVR1675 (LFG2 3F3:3D10 IgG1 kappa) (mouse) (heavy, as listed by the source): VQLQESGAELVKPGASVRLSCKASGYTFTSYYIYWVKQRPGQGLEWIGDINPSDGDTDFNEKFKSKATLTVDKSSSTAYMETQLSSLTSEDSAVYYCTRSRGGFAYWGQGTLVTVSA

For `CC[C@H](C)[C@H](NC(=O)[C@H](CCC(=O)O)NC(=O)[C@H](CC(=O)O)NC(=O)[C@H](CCC(N)=O)NC(=O)[C@H](Cc1c[nH]cn1)NC(=O)[C@@H](N)[C@@H](C)O)C(=O)N[C@@H](Cc1ccc(O)cc1)C(=O)N[C@@H](CCC(=O)O)C(=O)N[C@@H](CCC(N)=O)C(=O)N[C@@H](CCCCNC(=O)CCCC[C@@H]1SC[C@@H]2NC(=O)N[C@@H]21)C(=O)O` [Native LF core sequence] (H-THQDEIYEQK(Biotin)-OH), the “% R of Consensus” value [1] was 14%, the “Response (nm)” value [1] was 0.7024 nm and the Kd ([1]; read-out: KD (M) *) was > 1e-07 M.

With `CC[C@H](C)[C@H](NC(=O)[C@H](CC(N)=O)NC(=O)[C@@H]1CCCN1)C(=O)N[C@@H](C)C(=O)N[C@@H](CCC(=O)O)C(=O)N[C@@H](CCC(N)=O)C(=O)N[C@@H](Cc1ccc(O)cc1)C(=O)N[C@H](C(=O)N[C@@H](Cc1c[nH]cn1)C(=O)N[C@@H](CCC(N)=O)C(=O)N[C@@H](CC(=O)O)C(=O)N[C@@H](CCC(=O)O)C(=O)N[C@H](C(=O)N[C@@H](Cc1ccc(O)cc1)C(=O)N[C@@H](CCC(=O)O)C(=O)N[C@@H](CCC(N)=O)C(=O)N[C@H](C(=O)N[C@@H](Cc1c[nH]cn1)C(=O)N[C@@H](CO)C(=O)N[C@@H](CCCCN)C(=O)NCC(=O)N[C@@H](CC(C)C)C(=O)N[C@@H](Cc1ccc(O)cc1)C(=O)N[C@H](C(=O)N1CCC[C@H]1C(=O)N[C@@H](CCC(=O)O)C(=O)N[C@@H](CO)C(=O)N[C@@H](CCCNC(=N)N)C(=O)NCC(=O)NCC(=O)NCC(=O)N[C@@H](CO)C(=O)N[C@@H](CCCCNC(=O)CCCC[C@@H]1SC[C@@H]2NC(=O)N[C@@H]21)C(=O)O)C(C)C)C(C)C)[C@@H](C)CC)[C@@H](C)O` [Native LF extended sequence] the “% R of Consensus” value [1] was 14%, the “Response (nm)” value [1] was 0.7024 nm and the Kd ([1]; read-out: KD (M) *) was > 1e-07 M.

With `CC[C@H](C)[C@H](NC(=O)[C@H](CCC(=O)O)NC(=O)[C@H](CC(=O)O)NC(=O)[C@H](CCCCN)NC(=O)[C@H](Cc1ccccc1)NC(=O)[C@@H](N)[C@@H](C)O)C(=O)NCC(=O)NCC(=O)NCC(=O)N[C@@H](CO)C(=O)N[C@@H](CCCCNC(=O)CCCC[C@@H]1SC[C@@H]2NC(=O)N[C@@H]21)C(=O)O` [φC8-derived Reference Sequence] (H-TFKDEIGGGSK(Biotin)-OH; N-terminus and C-terminus assumed) the “% R of Consensus” value [1] was 100%, the “Binding relative to the LF-sequence derived oligopeptides” value [1] was “seven-fold higher binding” and the “R (binding response, running text)” value [1] was 4.84 nm. For the same molecule, the “Response (nm)” value [1] was 4.8387 nm, the Kd ([1]; read-out: KD (M) *) was 1.39e-08 M and the Kd ([1]; read-out: KD (equilibrium affinity constant)) was 9.97e-09 M.

For TVRD D Q I [φD7], the “Phage ELISA Reactivity (class)” value [2] was “High (OD 1.78) (key: High = OD > 1.0; Intermediate = OD 0.5–1.0; Low = OD < 0.5)”.

For TVRD EP L [φE12], the “Phage ELISA Reactivity (class)” value [2] was “High (OD 1.70) (key: High = OD > 1.0; Intermediate = OD 0.5–1.0; Low = OD < 0.5)”.

B1: phage-displayed peptide T-F-L-D-D-A-P (phage clone φE2) (peptide)
peptide: TFLDDAPGGGS
modifications: not fully specified
In the case of B1, the OD (phage ELISA reactivity) [3] is reported as 1.22 OD.

B2: phage-displayed peptide T-Y-K-D-D-I-R (phage clones φB5 and φD2) (peptide)
peptide: TYKDDIRGGGS
modifications: not fully specified
B2 was tested, and the OD (phage ELISA reactivity) [3] was 1.65 OD and 1.78 OD.

B3: phage-displayed peptide T-F-K-D-D-G-Y (phage clone φD4) (peptide)
peptide: TFKDDGYGGGS
modifications: not fully specified
B3 gave an OD (phage ELISA reactivity) [3] of 0.08 OD.

B4: phage-displayed peptide T-V-R-D-D-Q-I (phage clone φD7) (peptide)
peptide: TVRDDQIGGGS
modifications: not fully specified
In the case of B4, the OD (phage ELISA reactivity) [3] is reported as 1.78 OD.

B5: phage-displayed peptide T-V-R-D-E-P-L (phage clone φE12) (peptide)
peptide: TVRDEPLGGGS
modifications: not fully specified
For B5, the OD (phage ELISA reactivity) [3] was 1.7 OD.

B6: phage-displayed peptide T-Y-L-D-D-L-Y (phage clones φB6 and φD11) (peptide)
peptide: TYLDDLYGGGS
modifications: not fully specified
B6 was tested, and the OD (phage ELISA reactivity) [3] was 1.77 OD and 1.7 OD.

B7: phage-displayed peptide T-W-R-D-D-I-P (phage clone φD8) (peptide)
peptide: TWRDDIPGGGS
modifications: not fully specified
Work on B7 yielded an OD (phage ELISA reactivity) [3] of 0.79 OD.

B8: phage-displayed peptide T-F-K-D-D-I-H (phage clone φC9) (peptide)
peptide: TFKDDIHGGGS
modifications: not fully specified
Molecule B8 has an OD (phage ELISA reactivity) [3] of 1.33 OD.

B9: phage-displayed peptide T-Y-R-D-D-P-P (phage clone φE5) (peptide)
peptide: TYRDDPPGGGS
modifications: not fully specified
B9 showed an OD (phage ELISA reactivity) [3] of 1.55 OD.

B10: phage-displayed peptide T-V-L-D-D-V-A (phage clone φC2) (peptide)
peptide: TVLDDVAGGGS
modifications: not fully specified
Molecule B10 has an OD (phage ELISA reactivity) [3] of 0.36 OD.

B11: phage-displayed peptide T-F-K-D-D-L-F (phage clone φC7) (peptide)
peptide: TFKDDLFGGGS
modifications: not fully specified
B11 gave an OD (phage ELISA reactivity) [3] of 1.56 OD.

B12: phage-displayed peptide T-F-R-D-E-P-M (phage clone φB9) (peptide)
peptide: TFRDEPMGGGS
modifications: not fully specified
B12 was tested, and the OD (phage ELISA reactivity) [3] was 1.71 OD.

Reference: publication PMC5535168 (Toxins, 2017)
